# Assay results from paper PMC5325082 (Molecular Pharmacology, 2017).
# Tests used:
# α9χY190T (homomeric) = type: binding, rat
# α9χW55Tα10χ = α9χW55Tα10χ (UniProt P23979+P43144+Q9JLB5, L231I/L232I/W82T); type: binding, rat
# [1] = tested on: homomeric α9χW55T receptors; type: binding, rat
# α9χY190Tα10χ = type: binding, rat
# [2] = tested on: homomeric α10χW55T receptors; type: binding, rat
# α10χY190T (homomeric) = type: binding, rat
# homomeric α10χ = homomeric α10χ (UniProt P23979+Q9JLB5, L231I/L232I); type: binding, rat
# α9χW55Tα10χW55T = type: binding, rat
# α9χα10χY190T = type: binding, rat
# [3] = tested on: α9χY190Tα10χY190T (heteromeric double mutant); type: binding, rat
# α9χα10χW55T = target: T1, α9χα10χW55T (UniProt P23979+P43144+Q9JLB5, L231I/L232I/W81T); assay: [3H]-α-BTX radioligand binding, membranes of transfected tsA201 cells; set-up: species or system rat
# T1 construct: containing the extracellular N-terminal domain of the α9 or α10 subunit fused to the transmembrane and intracellular domain of the mouse 5-HT3A subunit; mouse 5-HT3A subunit transmembrane and intracellular domain (fusion partner); expressed in transfected cells; host or cells: tsA201 (derived from human embryonic kidney 293), transient transfection; membrane preparations
# Experimental: (§1) Chimeric subunit cDNAs containing the extracellular N-terminal domain of the α9 or α10 subunit fused to the transmembrane and intracellular domain of the mouse 5-HT3A subunit have been described previously ([Baker et al., 2004]). The mammalian cell line tsA201 (derived from the human embryonic kidney 293 cell line) was obtained from Dr. William Green (University of Chicago, Chicago). Cells were cultured in Dulbecco’s modified Eagle’s medium (Invitrogen, Paisley, United Kingdom) containing 2 mM L-GlutaMAX (Invitrogen) plus 10% heat-inactivated fetal calf serum (Sigma, Poole, United Kingdom) with penicillin (100 U/ml) and streptomycin (100 µg/ml) and were maintained in a humidified incubator containing 5% CO2 at 37°C. Cells were transiently transfected using Effectene transfection reagent (QIAGEN, Crawley, United Kingdom) according to the manufacturer’s instructions. In all cases, cells were transfected overnight and assayed for expression approximately 40–48 hours after transfection. To ensure that the levels of radioligand binding were not influenced by differences in the amount of subunit cDNA expressed, the amount of each subunit plasmid DNA and also the total amount of plasmid DNA were kept constant when subunits were expressed singly and in combination. This was achieved by the inclusion of empty plasmid expression vector when single subunits were transfected.
# (§2) Binding studies with [^3H]-α-bungarotoxin (α-BTX) in cell membrane preparations were performed essentially as described previously ([Lansdell and Millar, 2000]; [Harkness and Millar, 2002]). Membranes (typically, 10–100 µg of protein) were incubated with radioligand (final concentration 20 nM) for 150 minutes at 4°C in a total volume of 300 µl in the presence of protease inhibitors leupeptin (2 µg/ml) and pepstatin (1 µg/ml). Our standard protocol for determining nonspecific binding was the addition of 1 mM carbachol, 1 mM nicotine, and 10 µM methyllycaconitine to triplicate samples. […] In all cases the levels of specific binding were determined by subtracting the level of nonspecific binding from the total binding (both of which were determined in triplicate). The data were determined as means of three independent experiments, each performed in triplicate. Radioligand binding was assayed by filtration onto 0.5% polyethylenimine-presoaked Whatman GF/B filters (Sigma-Aldrich, Dorset, England) followed by rapid washing (typically, five washes, each of 4 ml) with ice-cold 10 mM phosphate buffer using a Brandel cell harvester, and radioactivity was determined by scintillation counting. […] Protein concentrations were determined using bovine serum albumin standards (Bio-Rad, Hercules, CA).
# [4] = target: T2, α9χα10χ (α9 and α10 extracellular domains fused to 5-HT3A) (UniProt P23979+P43144+Q9JLB5, L231I/L232I); assay: as above; set-up: species or system rat
# T2 construct: the extracellular N-terminal domain of the α9 or α10 subunit; expressed in transfected cells; host or cells: tsA201 cells (HEK293-derived), membrane preparation
# Experimental: as §1, §2
substance,measurement,setting,value
α-bungarotoxin [[^3H]-α-BTX],Specific binding of [3H]-α-BTX,α9χY190T (homomeric),complete loss of specific binding
same,Specific binding of [3H]-α-BTX,α9χW55Tα10χ,binding levels similar to those observed with either α10χ or α10χW55T when expressed alone
same,Specific binding of [3H]-α-BTX,[1],no detectable specific binding
same,"Specific binding of [3H]-α-BTX, fold higher than homomeric α10χ",α9χY190Tα10χ,4 fold
same,"Specific binding of [3H]-α-BTX, fold lower than wild-type α9χα10χ",α9χY190Tα10χ,6 fold
same,Specific binding of [3H]-α-BTX,[2],2.5 ± 0.6 fmol/mg
same,Specific binding of [3H]-α-BTX,α10χY190T (homomeric),complete loss of specific binding
same,Specific binding of [3H]-α-BTX,homomeric α10χ,1.4 ± 0.5 fmol/mg
same,Specific binding of [3H]-α-BTX,α9χW55Tα10χW55T,binding levels similar to those observed with either α10χ or α10χW55T when expressed alone
same,"Specific binding of [3H]-α-BTX, fold lower than wild-type α9χα10χ",α9χα10χY190T,4 fold
same,Specific binding of [3H]-α-BTX,[3],complete loss of specific binding
same,Specific binding of [3H]-α-BTX,α9χα10χW55T,specific binding levels similar to those observed with wild-type heteromeric α9χα10χ receptors
same,"Specific binding of [3H]-α-BTX, fold higher than α9χ expressed alone",[4],6 fold
